Reference: paper PMC9038795, “Deletion and tandem duplications of biosynthetic genes drive the diversity of triterpenoids in Aralia elata” (Nature Communications, 2022)

Columns and labels:
Assay in all cases: HPLC-MS kinetic assay
Assay type in all cases: biochemical, Aralia elata
Settings in all cases: 0.5 mM UDP-Glc, 50 mM Tris-HCl pH 7.0, 30 °C, 1 µM enzyme
AeUGT73AD2 = test system: T1, AeUGT73AD2
T1 construct: pGEX-4T-1, GST-tagged, E. coli BL21 (DE3), GSTrap purified

AeUGT74AG6 = test system: T2, AeUGT74AG6
T2 construct: pGEX-4T-1, GST-tagged, E. coli BL21 (DE3), GSTrap purified

AeUGT73CB3 = test system: T3, AeUGT73CB3
T3 construct: pGEX-4T-1, GST-tagged, E. coli BL21 (DE3), GSTrap purified; methods print AeUGT74CB3
Description: HPLC-MS kinetic assay on AeUGT73CB3 | The kinetic parameters of AeUGT73CB3 for calenduloside E and chikusetsusaponin IVa as substrates were analyzed.

| Km (AeUGT73AD2) [µM] | Km (AeUGT74AG6) [µM] | Km (AeUGT73CB3) [µM] | SMILES |
| --- | --- | --- | --- |
| 43 ± 9.17 | 40.3 ± 2.49 |  | CC1(C)CC[C@]2(C(=O)O)CC[C@]3(C)C(=CC[C@@H]4[C@@]5(C)CC[C@H](O)C(C)(C)[C@@H]5CC[C@]43C)[C@@H]2C1 [compound 2, oleanolic acid] |
|  |  | 640.2 ± 4.6 | CC1(C)CC[C@]2(C(=O)O[C@@H]3O[C@H](CO)[C@@H](O)[C@H](O)[C@H]3O)CC[C@]3(C)C(=CC[C@@H]4[C@@]5(C)CC[C@H](O[C@@H]6O[C@H](C(=O)O)[C@@H](O)[C@H](O)[C@H]6O)C(C)(C)[C@@H]5CC[C@]43C)[C@@H]2C1 [compound 9, chikusetsusaponin IVa] |
|  | 150 ± 7.7 | 51.8 ± 2.1 | CC1(C)CC[C@]2(C(=O)O)CC[C@]3(C)C(=CC[C@@H]4[C@@]5(C)CC[C@H](O[C@@H]6O[C@H](C(=O)O)[C@@H](O)[C@H](O)[C@H]6O)C(C)(C)[C@@H]5CC[C@]43C)[C@@H]2C1 [compound 7, calenduloside E] |
|  | 48.8 ± 3.04 |  | CC1(C)CC[C@]2(C(=O)O)CC[C@]3(C)C(=CC[C@@H]4[C@@]5(C)CC[C@H](O[C@@H]6O[C@H](C(=O)O)[C@@H](O)[C@H](O)[C@H]6O[C@@H]6O[C@H](CO)[C@@H](O)[C@H](O)[C@H]6O)C(C)(C)[C@@H]5CC[C@]43C)[C@@H]2C1 [compound 8, zingibroside R1] |
